Test results published in PMC12615753, “Glutathione as a taste modulator: molecular mechanisms of interaction with umami and sweet taste receptors” (Food Chemistry: Molecular Sciences, 2025).

Tests used:
hTAS1R2/hTAS1R3(r1–575) = molecular target: T1, hTAS1R2/hTAS1R3(r1–575) (UniProt Q8TE23+Q923K1, A645S/A698V/A702T/A793V/A807V/C582S/C678S/E725V/E827G/F612A/F622V/F805L/I617V/I740A/I779T/I803L/K818R/L735F/L823M/L825Q/M644L/M706V/M729T/N675D/Q717H/Q757R/Q795R/Q831P/R632Q/R634S/R762C/S576L/S610P/S635P/S637R/S679G/T588V/T694M/T813A/V584A/V718M/V723A/V738A/V744T/V821L/W599R/W676R/W824R/Y598H/Y680C/Y794L); assay: Calcium assay, chimeric TAS1R3 co-expressed with hTAS1R2; type: cell-based, human, rat
T1 construct: hTAS1R3(r1–575) consists of the N-terminal extracellular domain of rTAS1R3 and the TMD of hTAS1R3; expressed in transfected cells
T1 sequence (Q8TE23 20-839, stated change not applied): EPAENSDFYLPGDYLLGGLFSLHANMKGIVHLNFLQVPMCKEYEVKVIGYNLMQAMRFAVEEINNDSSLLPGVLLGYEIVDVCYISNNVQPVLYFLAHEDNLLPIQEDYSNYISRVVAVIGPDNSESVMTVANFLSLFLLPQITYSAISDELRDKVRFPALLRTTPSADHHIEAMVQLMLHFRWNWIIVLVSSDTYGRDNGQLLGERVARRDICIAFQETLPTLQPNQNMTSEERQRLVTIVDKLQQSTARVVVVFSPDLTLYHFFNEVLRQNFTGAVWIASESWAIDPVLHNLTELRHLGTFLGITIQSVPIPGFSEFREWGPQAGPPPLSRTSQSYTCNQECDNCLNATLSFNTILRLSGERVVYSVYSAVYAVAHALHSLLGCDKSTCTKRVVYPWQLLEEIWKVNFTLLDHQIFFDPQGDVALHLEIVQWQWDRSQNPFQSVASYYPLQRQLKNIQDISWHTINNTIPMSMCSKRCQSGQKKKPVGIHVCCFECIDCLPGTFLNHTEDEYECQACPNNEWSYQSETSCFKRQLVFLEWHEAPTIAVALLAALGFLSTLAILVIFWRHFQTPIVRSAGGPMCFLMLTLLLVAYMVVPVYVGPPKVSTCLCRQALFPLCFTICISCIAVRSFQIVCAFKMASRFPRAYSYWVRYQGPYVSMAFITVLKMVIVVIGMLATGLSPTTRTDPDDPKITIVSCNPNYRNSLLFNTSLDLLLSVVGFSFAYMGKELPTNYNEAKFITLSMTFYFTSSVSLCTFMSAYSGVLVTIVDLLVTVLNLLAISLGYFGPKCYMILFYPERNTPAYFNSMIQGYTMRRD
T1 sequence (Q923K1 other isoform, or with tags, fused parts or gaps with the stated changes): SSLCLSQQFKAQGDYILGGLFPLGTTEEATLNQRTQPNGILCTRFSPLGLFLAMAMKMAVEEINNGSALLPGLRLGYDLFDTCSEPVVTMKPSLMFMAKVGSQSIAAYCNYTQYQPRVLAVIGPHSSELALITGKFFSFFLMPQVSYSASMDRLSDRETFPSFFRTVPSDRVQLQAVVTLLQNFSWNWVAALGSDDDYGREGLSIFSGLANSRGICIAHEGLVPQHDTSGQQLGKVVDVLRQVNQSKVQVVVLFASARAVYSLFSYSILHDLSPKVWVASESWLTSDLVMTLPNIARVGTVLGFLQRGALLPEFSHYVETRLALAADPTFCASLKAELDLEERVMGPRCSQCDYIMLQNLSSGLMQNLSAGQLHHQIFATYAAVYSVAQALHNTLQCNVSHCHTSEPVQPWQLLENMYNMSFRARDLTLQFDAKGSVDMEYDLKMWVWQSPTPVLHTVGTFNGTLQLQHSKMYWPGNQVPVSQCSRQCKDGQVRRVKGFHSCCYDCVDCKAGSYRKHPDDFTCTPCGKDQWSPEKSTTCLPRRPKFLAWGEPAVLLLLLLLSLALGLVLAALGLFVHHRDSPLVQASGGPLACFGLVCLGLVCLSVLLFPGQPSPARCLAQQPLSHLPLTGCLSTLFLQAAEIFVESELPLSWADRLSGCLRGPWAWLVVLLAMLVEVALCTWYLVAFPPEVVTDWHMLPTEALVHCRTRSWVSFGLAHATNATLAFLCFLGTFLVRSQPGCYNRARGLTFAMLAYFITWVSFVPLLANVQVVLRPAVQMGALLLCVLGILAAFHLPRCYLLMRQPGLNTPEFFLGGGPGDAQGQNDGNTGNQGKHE
From the text: Chimeric Gα proteins, such as Gα16Gust44, Gα16Gi3 or Gα15i2, are widely used in the functional expression of TAS1R receptors ([Backes et al., 2015]; [Suess et al., 2015]; [Toda et al., 2021], [Toda et al., 2013], [Toda et al., 2018]; [Zhang et al., 2008]). Chimeric Gα15i2 (([Toda et al., 2013]), Supplementary data) was generated by replacing the last five residues of the C-terminal tail of rat Gα15i2 (EINLL) (UniProt number G3V6N8; https://www.uniprot.org/uniprot/) with the counterpart sequence from human GNAI2 (DCGLF) (UniProt number P04899-1) and cloning into the pcDNA3.1/Hygro vector (Invitrogen, Thermo Fisher Scientific, Illkirch, France) between the HindIII and NotI restriction sites, resulting in the plasmid pcDNA3.1-Gα15i2. Chimeric Gα16Gust44 construct have already been reported ([Raliou et al., 2011]). Briefly, Gα16Gust44 was generated by replacing the C-terminal of Gα16 with the C-terminal 44 residues of gustducin. As previously described, hTAS1R1 was amplified from human fungiform papillae cDNA and cloned and inserted into pcDNA3 (Invitrogen), generating pcDNA3-TAS1R1-WT (wild-type) ([Raliou et al., 2011]). […]

hTAS1R2/rTAS1R3(Mut2) = molecular target: T2, hTAS1R2/rTAS1R3(Mut2) (UniProt Q8TE23+Q923K1, L72W/P67S/S282A/Y281H); assay: Calcium assay, mutated rTAS1R3 co-expressed with hTAS1R2; type: cell-based, human, rat
T2 construct: The cDNA coding region of rTAS1R3 was synthesized with optimized-codon usage for human expression; expressed in transfected cells
T2 sequence (Q8TE23 20-839): as the sequence (Q8TE23 20-839, stated change not applied) above
T2 sequence (Q923K1 21-858 P67S/L72W/Y281H/S282A): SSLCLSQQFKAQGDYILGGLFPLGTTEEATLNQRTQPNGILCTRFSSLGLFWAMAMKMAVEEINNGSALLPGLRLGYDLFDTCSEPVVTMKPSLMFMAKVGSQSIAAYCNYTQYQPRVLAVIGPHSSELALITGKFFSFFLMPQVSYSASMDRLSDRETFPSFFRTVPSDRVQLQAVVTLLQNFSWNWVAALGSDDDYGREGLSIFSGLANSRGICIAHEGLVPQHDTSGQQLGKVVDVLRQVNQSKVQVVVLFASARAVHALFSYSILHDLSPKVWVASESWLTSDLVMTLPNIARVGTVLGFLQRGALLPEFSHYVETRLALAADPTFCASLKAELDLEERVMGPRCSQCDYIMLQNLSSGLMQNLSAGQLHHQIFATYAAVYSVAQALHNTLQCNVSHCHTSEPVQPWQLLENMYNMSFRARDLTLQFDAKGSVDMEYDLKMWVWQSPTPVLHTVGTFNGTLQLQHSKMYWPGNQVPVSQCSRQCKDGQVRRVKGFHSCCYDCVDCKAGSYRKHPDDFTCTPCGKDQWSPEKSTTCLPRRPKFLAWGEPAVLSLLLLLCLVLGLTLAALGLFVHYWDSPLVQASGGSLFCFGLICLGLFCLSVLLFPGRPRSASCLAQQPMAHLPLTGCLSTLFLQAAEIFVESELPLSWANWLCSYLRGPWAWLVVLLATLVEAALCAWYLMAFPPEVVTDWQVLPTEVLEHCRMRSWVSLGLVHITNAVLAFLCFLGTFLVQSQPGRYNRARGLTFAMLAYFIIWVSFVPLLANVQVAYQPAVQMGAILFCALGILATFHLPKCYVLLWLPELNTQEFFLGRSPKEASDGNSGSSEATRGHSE

Compound	EC50 (hTAS1R2/hTAS1R3(r1–575); sucralose alone, Fig. 3B)	EC50 (hTAS1R2/rTAS1R3(Mut2); sucralose alone, Fig. 4A)	fold decrease in the EC50 value of sucralose (hTAS1R2/hTAS1R3(r1–575); in the presence of 10 mM GSH)	effect of 10 mM GSH on the response to sucralose (hTAS1R2/rTAS1R3(Mut2))
OC[C@H]1O[C@H](O[C@]2(CCl)O[C@H](CCl)[C@@H](O)[C@@H]2O)[C@H](O)[C@@H](O)[C@H]1Cl [sucralose, reference compound]	485 ± 138 µM	493 ± 114 µM		
N[C@@H](CCC(=O)N[C@@H](CS)C(=O)NCC(=O)O)C(=O)O [GSH, γ-L-glutamyl-L-cysteinyl-glycine]			5.2 fold	not increased
